Assay [1] relates to proteins of the extracellular matrix (chiefly collagens). Nature of the assay: Non-enzymatic glycation: incorporation of [3H]-glucose in extracellular matrix proteins deposited by dermal fibroblasts. In kind it is biochemical, human. The note with it: 1 mg/ml. On the procedure: The non-enzymatic insertion of AGEs in synthesised collagen fibres deposited by human dermal fibroblasts cultured in vitro was examined. A radioactive detection method was used that was based on the incorporation of tritiated glucose in the proteins of the extracellular matrix.
Normal human dermal fibroblasts were cultured in the presence of vitamin C to stimulate the synthesis of collagen. The cells then underwent different operations (freezing/thawing/heating) to inactivate all enzymatic activity.
The matrix layers thus obtained were treated in the presence of the above-described lupin peptide extract at 0.2 and 2%, aminoguanidine HCl at 1 mg/ml (control), 0.2% glucose and [^3H]-glucose radioactive marker for 15 days at 37° C., in the absence of oxygen (rapid re-oxygenation was performed after 7 treatment days).
After incubation, the proteins of the extracellular matrix (chiefly collagens) were extracted using a chaotropic buffer, precipitated with trichloroacetic acid and collected on filters. The radioactivity incorporated in the ECM fibres was measured by liquid scintillation.
The results were analysed statistically using one-factor analysis of variance followed by a Dunnett test, and are given in the Table below: […]

For assay [2], the system named is “aged” dermal equivalents seeded with senescent fibroblasts. Nature of the assay: Contraction of “aged” dermal equivalents (surface area). In kind it is cell-based. The note with it: 10 ng/ml; for % “aged” control: area relative to “aged” control; for Area in mm^2 (mean ± SEM): “aged” DEs. Here is the method: A model of dermal equivalents containing fibroblasts allows evaluation of the quality of interactions between fibroblasts and collagen fibres. The free contraction/retraction of these dermal equivalents results from the dynamic activity of the cells which apply tensile forces on the collagen network.
The effect of lupin peptide extract on the contraction of dermal equivalents was evaluated. To induce a condition of fibroblast loss of contractile forces, the dermal equivalents were seeded with senescent so-called “aged” fibroblasts (obtained by successive passaging in accordance with the Hayflick model).
“Aged” or normal dermal equivalents were prepared by mixing the fibroblasts (at passage 8 for normal dermal equivalents or at passage 17 for “aged” dermal equivalents) with a collagen solution.
After full gelling, the dermal equivalents were treated with TGFβ at 10 ng/ml (control) or 0.1% lupin peptide extract and incubated for 4 days.
The dermal equivalents were photographed at D1, D3 and D4 to measure their surface area for determination of contraction.

As to `Cl.N=C(N)NN` [Aminoguanidine, aminoguanidine HCl], in assay [1] (15 days at 37° C., control 5527 ± 464), the “Incorporation [^3H]-glucose (cpm)” value was determined as 1219 ± 92 cpm. The Inhibition of glycation in assay [1] (versus control, p < 0.001) is −78% p < 0.001.

As for TGFβ, in assay [2] (significant after a treatment time of 4 days), the “Contraction of “aged” DEs (in words)” value is listed as “stimulates the contraction of “aged” DEs”. In addition, the “% “aged” control” value in assay [2] (D1) is reported as 94%; in assay [2] (D3) it was 95%; in assay [2] (D4, p < 0.05), 85 (p < 0.05) %. Further, the entries for the “Area in mm^2 (mean ± SEM)” value in assay [2] (D1), in assay [2] (D3) and in assay [2] (D4) were 264.6 ± 5.5 mm^2, 285.9 ± 6.7 mm^2 and 201.3 ± 8.4 mm^2, respectively.

The values are drawn from US10463593B2, “Lupin peptide extracts and skin firmness” (LABORATOIRES EXPANSCIENCE, priority 2014, dated 2019).
